Test results: paper PMC7265341, “Quantifying CDK inhibitor selectivity in live cells” (Nature Communications, 2020)
Where two headings read alike, the source gives them in different places.

Assays:
[1] = target: CDK12/Cyclin K (Homo sapiens, UniProt Q9NYV4); assay: NanoBRET live-cell target engagement, CDK12-NanoLuc/Cyclin K in HEK-293; type: binding; settings: read-out: CDK12/K Inhibition at 10µM (%), 10µM
[2] = target: CDK11B/Cyclin L2 (Homo sapiens, UniProt P21127); assay: NanoBRET live-cell target engagement, CDK11B-NanoLuc/Cyclin L2 in HEK-293; type: binding; settings: read-out: CDK11b/L2 Inhibition at 10µM (%), 10µM
[3] = target: CDK20/Cyclin H (Homo sapiens, UniProt Q8IZL9); assay: NanoBRET live-cell target engagement, NanoLuc-CDK20/Cyclin H in HEK-293; type: binding; settings: read-out: CDK20/H Inhibition at 10µM (%), 10µM
[4] = target: CDK6/Cyclin D1 (Homo sapiens, UniProt Q00534); assay: NanoBRET live-cell target engagement, NanoLuc-CDK6/Cyclin D1 in HEK-293; type: binding; settings: for inhibition at 10 µM: read-out: CDK6/D1 Inhibition at 10µM (%); for CDK6 Occupancy (%): Panel A
[5] = target: CDK1/Cyclin E1 (Homo sapiens, UniProt P06493); assay: NanoBRET live-cell target engagement, CDK1-NanoLuc/Cyclin E1 in HEK-293; type: binding; settings: for inhibition at 10 µM: read-out: CDK1/E1 Inhibition at 10µM (%); for IC50: read-out: CDK1/E1 IC50
[6] = target: CDK3/Cyclin E1 (Homo sapiens, UniProt Q00526); assay: NanoBRET live-cell target engagement, CDK3-NanoLuc/Cyclin E1 in HEK-293; type: binding; settings: for inhibition at 10 µM: read-out: CDK3/E1 Inhibition at 10µM (%); for IC50: read-out: CDK3/E1 IC50
[7] = target: CDK15/Cyclin Y (Homo sapiens, UniProt Q96Q40); assay: NanoBRET live-cell target engagement, NanoLuc-CDK15/Cyclin Y in HEK-293; type: binding; settings: for inhibition at 10 µM: read-out: CDK15/Y Inhibition at 10µM (%), 10µM
[8] = target: CDK5/CDK5R1 (Homo sapiens, UniProt Q00535); assay: NanoBRET live-cell target engagement, CDK5-NanoLuc/CDK5R1 in HEK-293; type: binding; settings: for inhibition at 10 µM: read-out: CDK5/CDK5R1 Inhibition at 10µM (%); for IC50: read-out: CDK5/CDK5R1 IC50
[9] = target: CDK19/Cyclin C (Homo sapiens, UniProt Q9BWU1); assay: NanoBRET live-cell target engagement, NanoLuc-CDK19/Cyclin C in HEK-293; settings: read-out: CDK19/C Inhibition at 10µM (%), 10µM
[10] = target: CDK8/Cyclin C (Homo sapiens, UniProt P49336); assay: NanoBRET live-cell target engagement, NanoLuc-CDK8/Cyclin C in HEK-293; type: binding; settings: 10µM, read-out: CDK8/C Inhibition at 10µM (%)
CDK8/Cyclin C, sequence (P49336 whole entry): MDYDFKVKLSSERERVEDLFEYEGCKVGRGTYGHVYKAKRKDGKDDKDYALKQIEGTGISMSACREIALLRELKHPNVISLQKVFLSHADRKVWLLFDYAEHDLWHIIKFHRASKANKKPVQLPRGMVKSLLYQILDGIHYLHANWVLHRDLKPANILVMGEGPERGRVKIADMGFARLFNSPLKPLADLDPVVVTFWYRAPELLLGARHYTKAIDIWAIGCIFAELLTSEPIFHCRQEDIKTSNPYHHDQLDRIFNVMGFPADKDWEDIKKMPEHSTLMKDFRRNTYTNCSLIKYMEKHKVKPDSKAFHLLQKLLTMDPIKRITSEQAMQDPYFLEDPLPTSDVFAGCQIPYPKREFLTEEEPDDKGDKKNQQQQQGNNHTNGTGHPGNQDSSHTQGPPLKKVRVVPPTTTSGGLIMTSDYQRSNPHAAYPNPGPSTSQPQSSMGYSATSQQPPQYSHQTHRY
CDK8/Cyclin C, sequence (P24863 whole entry partner): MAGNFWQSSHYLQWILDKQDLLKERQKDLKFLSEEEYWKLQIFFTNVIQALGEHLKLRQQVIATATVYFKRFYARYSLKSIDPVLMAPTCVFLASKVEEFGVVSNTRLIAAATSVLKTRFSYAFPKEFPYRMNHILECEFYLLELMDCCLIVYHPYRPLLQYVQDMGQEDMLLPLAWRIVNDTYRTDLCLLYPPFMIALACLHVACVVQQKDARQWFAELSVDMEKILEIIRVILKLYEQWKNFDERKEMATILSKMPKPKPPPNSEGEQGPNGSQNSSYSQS

CDK6/Cyclin D1, sequence (Q00534 whole entry): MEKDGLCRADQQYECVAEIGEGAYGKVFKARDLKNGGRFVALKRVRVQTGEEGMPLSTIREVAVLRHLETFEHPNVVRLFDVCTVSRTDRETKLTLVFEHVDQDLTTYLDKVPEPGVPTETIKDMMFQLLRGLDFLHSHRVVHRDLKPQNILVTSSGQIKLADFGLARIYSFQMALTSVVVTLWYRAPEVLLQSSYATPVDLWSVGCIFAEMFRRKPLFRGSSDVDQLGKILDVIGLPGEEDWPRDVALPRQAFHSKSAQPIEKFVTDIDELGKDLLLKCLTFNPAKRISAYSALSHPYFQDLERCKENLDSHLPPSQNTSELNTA
CDK6/Cyclin D1, sequence (P24385 whole entry partner): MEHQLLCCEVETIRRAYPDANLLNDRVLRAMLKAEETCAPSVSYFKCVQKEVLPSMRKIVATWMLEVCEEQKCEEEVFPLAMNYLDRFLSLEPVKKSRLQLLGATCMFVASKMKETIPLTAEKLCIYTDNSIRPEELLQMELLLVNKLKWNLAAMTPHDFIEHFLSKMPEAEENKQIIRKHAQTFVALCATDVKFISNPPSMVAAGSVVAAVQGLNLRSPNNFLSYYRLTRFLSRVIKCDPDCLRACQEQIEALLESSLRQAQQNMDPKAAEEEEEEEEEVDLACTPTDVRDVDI
CDK3/Cyclin E1, sequence (Q00526 whole entry): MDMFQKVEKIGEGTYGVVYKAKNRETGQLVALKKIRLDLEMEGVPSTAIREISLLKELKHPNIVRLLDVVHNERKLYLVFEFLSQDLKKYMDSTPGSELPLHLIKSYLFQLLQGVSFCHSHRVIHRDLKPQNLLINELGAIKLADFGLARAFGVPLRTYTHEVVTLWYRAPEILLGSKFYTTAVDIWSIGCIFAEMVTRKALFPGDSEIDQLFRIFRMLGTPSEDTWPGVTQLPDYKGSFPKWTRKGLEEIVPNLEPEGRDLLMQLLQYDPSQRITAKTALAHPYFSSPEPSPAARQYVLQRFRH
CDK3/Cyclin E1, sequence (P24864 whole entry partner): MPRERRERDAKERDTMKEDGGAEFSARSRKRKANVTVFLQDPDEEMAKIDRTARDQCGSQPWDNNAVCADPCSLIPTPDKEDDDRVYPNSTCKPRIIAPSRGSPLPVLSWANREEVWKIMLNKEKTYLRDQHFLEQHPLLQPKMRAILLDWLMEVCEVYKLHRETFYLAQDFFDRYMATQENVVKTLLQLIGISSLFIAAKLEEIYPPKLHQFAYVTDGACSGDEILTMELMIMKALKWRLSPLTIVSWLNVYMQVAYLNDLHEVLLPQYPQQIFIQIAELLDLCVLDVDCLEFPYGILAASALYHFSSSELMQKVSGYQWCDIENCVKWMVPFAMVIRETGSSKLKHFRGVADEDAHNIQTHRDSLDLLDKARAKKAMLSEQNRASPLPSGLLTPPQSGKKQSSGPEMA
CDK1/Cyclin E1, sequence (P06493 whole entry): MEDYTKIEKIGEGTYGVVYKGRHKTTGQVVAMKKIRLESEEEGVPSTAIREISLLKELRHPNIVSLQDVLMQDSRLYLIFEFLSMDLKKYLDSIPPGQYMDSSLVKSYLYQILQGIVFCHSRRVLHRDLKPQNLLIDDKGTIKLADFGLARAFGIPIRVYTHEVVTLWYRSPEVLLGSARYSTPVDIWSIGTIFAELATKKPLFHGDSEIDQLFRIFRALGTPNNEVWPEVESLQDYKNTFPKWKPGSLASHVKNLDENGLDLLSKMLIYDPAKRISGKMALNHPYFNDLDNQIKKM
CDK1/Cyclin E1, sequence (P24864 whole entry partner): as the sequence (P24864 whole entry partner) above
CDK5/CDK5R1, sequence (Q00535 whole entry): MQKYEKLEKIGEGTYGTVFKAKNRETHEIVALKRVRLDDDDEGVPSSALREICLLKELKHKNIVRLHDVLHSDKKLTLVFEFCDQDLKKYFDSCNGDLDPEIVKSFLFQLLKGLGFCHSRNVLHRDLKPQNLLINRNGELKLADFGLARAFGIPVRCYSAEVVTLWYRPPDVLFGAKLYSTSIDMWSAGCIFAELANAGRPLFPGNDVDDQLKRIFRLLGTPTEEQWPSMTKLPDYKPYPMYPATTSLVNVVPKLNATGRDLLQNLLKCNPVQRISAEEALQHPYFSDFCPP
CDK5/CDK5R1, sequence (Q15078 whole entry partner): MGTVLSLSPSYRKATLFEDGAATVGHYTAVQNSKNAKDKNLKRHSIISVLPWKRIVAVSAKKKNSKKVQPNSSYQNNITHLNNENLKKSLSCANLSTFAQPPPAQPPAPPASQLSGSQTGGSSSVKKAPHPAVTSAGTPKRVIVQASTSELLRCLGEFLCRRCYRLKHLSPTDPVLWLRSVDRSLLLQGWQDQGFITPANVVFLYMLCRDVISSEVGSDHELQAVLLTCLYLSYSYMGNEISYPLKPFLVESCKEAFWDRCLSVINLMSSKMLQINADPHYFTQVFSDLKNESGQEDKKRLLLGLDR
CDK11B/Cyclin L2, sequence (P21127 1-782 isoform P21127-2): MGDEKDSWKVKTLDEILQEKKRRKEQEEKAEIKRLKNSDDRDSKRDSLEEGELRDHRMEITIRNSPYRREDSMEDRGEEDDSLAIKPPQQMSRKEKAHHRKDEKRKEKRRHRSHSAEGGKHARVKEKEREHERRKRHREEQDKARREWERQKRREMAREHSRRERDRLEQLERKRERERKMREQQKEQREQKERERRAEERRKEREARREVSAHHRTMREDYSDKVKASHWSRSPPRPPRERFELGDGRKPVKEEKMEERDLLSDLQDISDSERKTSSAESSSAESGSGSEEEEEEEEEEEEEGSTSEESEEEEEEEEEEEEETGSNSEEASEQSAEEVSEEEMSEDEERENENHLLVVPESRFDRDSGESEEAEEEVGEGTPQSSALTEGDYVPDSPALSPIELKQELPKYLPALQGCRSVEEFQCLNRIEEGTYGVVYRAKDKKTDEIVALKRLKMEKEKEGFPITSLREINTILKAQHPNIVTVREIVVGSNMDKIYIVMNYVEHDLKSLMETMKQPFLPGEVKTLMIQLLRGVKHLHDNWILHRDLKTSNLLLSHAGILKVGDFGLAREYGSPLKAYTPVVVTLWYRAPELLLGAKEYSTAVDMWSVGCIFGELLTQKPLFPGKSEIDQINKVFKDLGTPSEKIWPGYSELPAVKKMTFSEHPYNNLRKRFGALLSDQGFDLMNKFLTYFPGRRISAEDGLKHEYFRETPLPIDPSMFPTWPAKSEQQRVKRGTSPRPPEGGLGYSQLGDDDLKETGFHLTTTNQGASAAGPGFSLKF
CDK15/Cyclin Y, sequence (Q96Q40 whole entry): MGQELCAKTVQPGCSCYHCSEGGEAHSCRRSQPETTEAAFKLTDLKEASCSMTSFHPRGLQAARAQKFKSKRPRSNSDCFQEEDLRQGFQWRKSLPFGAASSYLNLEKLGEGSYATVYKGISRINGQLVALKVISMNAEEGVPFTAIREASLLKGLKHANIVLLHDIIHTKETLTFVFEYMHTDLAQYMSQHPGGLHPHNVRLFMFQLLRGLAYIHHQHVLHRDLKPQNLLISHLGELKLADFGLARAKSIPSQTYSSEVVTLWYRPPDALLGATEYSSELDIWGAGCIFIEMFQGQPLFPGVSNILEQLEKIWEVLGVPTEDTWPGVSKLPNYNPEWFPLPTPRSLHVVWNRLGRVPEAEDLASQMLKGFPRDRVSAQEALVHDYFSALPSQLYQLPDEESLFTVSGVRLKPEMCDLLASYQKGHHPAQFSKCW
CDK15/Cyclin Y, sequence (Q8ND76 whole entry partner): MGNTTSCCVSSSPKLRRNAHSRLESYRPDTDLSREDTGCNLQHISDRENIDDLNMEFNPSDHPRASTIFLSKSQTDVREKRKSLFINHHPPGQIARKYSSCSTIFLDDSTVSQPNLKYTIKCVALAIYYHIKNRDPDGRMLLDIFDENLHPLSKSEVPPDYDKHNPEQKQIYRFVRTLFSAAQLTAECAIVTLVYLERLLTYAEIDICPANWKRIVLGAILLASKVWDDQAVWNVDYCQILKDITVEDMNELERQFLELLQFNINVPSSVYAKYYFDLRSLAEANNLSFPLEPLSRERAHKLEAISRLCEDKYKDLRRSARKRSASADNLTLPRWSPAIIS

In the case of COCCN1CCN(Cc2ccc(-c3n[nH]c4c3C(=O)c3c(NC(=O)NN5CCOCC5)cccc3-4)cc2)CC1 [RGB286638], the inhibition at 10 µM ([1]; average of experiments) is reported as 47.5%, the inhibition at 10 µM ([1]; independent experiment 1) is reported as 30.7% and the inhibition at 10 µM ([1]; independent experiment 2) is reported as 64.4%. The inhibition at 10 µM ([2]; average of experiments) was 32.6%, the inhibition at 10 µM ([2]; independent experiment 1) was 19.9% and the inhibition at 10 µM ([2]; independent experiment 2) was 45.2%. It also gave an inhibition at 10 µM ([3]; independent experiment 1) of 46%, an inhibition at 10 µM ([3]; independent experiment 2) of 84.3% and an inhibition at 10 µM ([4]; average of experiments) of 99.1%. For the same compound, the inhibition at 10 µM ([4]; independent experiment 1) was 98.9%, the inhibition at 10 µM ([4]; independent experiment 2) was 99.4% and the “CDK6 Occupancy (%)” value ([4]; LOG10([RGB-286638]) 0.045757 LOG10(µM)) was 96.3121%. For the same compound, the “CDK6 Occupancy (%)” value ([4]; LOG10([RGB-286638]) 0.522879 LOG10(µM)) was 95.6738%, the “CDK6 Occupancy (%)” value ([4]; LOG10([RGB-286638]) 1 LOG10(µM)) was 95.6028% and the “CDK6 Occupancy (%)” value ([4]; LOG10([RGB-286638]) -0.43136 LOG10(µM)) was 95.1064%. For the same compound, the “CDK6 Occupancy (%)” value ([4]; LOG10([RGB-286638]) -0.90849 LOG10(µM)) was 90.4255%, the “CDK6 Occupancy (%)” value ([4]; LOG10([RGB-286638]) -1.38561 LOG10(µM)) was 76.8794% and the “CDK6 Occupancy (%)” value ([4]; LOG10([RGB-286638]) -1.86273 LOG10(µM)) was 49.6454%. For the same compound, the “CDK6 Occupancy (%)” value ([4]; LOG10([RGB-286638]) -2.33985 LOG10(µM)) was 19.8582%, the “CDK6 Occupancy (%)” value ([4]; LOG10([RGB-286638]) -2.81697 LOG10(µM)) was 7.0922% and the “CDK6 Occupancy (%)” value ([4]; LOG10([RGB-286638]) -3.29409 LOG10(µM)) was 2.128%. For the same compound, the “CDK6 Occupancy (%)” value ([4]; LOG10([RGB-286638]) -3.77121 LOG10(µM)) was 0%, the IC50 ([4]; average (± SEM where n=3), read-out: CDK6/D1 IC50) was 12 ± 1 nM and the IC50 ([4]; independent experiment 1, read-out: CDK6/D1 IC50) was 13 nM. For the same compound, the IC50 ([4]; independent experiment 2, read-out: CDK6/D1 IC50) was 9.7 nM, the IC50 ([4]; independent experiment 3, read-out: CDK6/D1 IC50) was 14 nM and the IC50 ([4]; live HEK-293, 2 h, mean ± S.E.M. (n=3) or mean (n=2), read-out: IC50 for CDK/cyclin complexes, CDK6/D1) was 12 to 16 nM. The inhibition at 10 µM ([5]; average of experiments) was 87.9%, the inhibition at 10 µM ([5]; independent experiment 1) was 79.8% and the inhibition at 10 µM ([5]; independent experiment 2) was 96%. The IC50 ([5]; average (± SEM where n=3)) was 39 nM, the IC50 ([5]; independent experiment 1) was 37 nM and the IC50 ([5]; independent experiment 2) was 41 nM. It also gave an inhibition at 10 µM ([6]; average of experiments) of 91.3%, an inhibition at 10 µM ([6]; independent experiment 1) of 89.1% and an inhibition at 10 µM ([6]; independent experiment 2) of 93.6%. It also gave an IC50 ([6]; average (± SEM where n=3)) of 12 nM, an IC50 ([6]; independent experiment 1) of 14 nM and an IC50 ([6]; independent experiment 2) of 10 nM. It also gave an IC50 ([7]; average (± SEM where n=3), read-out: CDK15/Y IC50) of 14 nM, an IC50 ([7]; independent experiment 1, read-out: CDK15/Y IC50) of 14 nM and an IC50 ([7]; independent experiment 2, read-out: CDK15/Y IC50) of 13 nM. It also gave an IC50 ([7]; live HEK-293, 2 h, mean ± S.E.M. (n=3) or mean (n=2), read-out: IC50 for CDK/cyclin complexes, CDK15/Y) of 14 nM, an inhibition at 10 µM ([7]; average of experiments) of 97.4% and an inhibition at 10 µM ([7]; independent experiment 1) of 96.5%. The inhibition at 10 µM ([7]; independent experiment 2) was 98.2%, the inhibition at 10 µM ([8]; average of experiments) was 84.4% and the inhibition at 10 µM ([8]; independent experiment 1) was 71.7%. For the same compound, the inhibition at 10 µM ([8]; independent experiment 2) was 97.2%, the IC50 ([8]; average (± SEM where n=3)) was 75 nM and the IC50 ([8]; independent experiment 1) was 80 nM. It also gave an IC50 ([8]; independent experiment 2) of 70 nM, an inhibition at 10 µM ([9]; average of experiments) of 58% and an inhibition at 10 µM ([9]; independent experiment 1) of 32.8%. The inhibition at 10 µM ([9]; independent experiment 2) was 83.3%, the inhibition at 10 µM ([10]; average of experiments) was 55.6% and the inhibition at 10 µM ([10]; independent experiment 1) was 21.9%. The inhibition at 10 µM ([10]; independent experiment 2) was 89.3%.
